From US20250295646A1, “METHODS OF USE OF T-TYPE CALCIUM CHANNEL MODULATORS” (Praxis Precision Medicines, Inc., priority 2022, published 2025)

Tested on: adult patients with essential tremor
Assay: Example 16: video-reviewed TETRAS performance subscale and upper limb score; as to TETRAS Performance Subscale Total Score by Video Review, Change from Baseline, Mean (SD): test concentration or dose not given here; as to TETRAS Performance Subscale Total Score by Video Review, Change from Baseline, Median: test concentration or dose not given here; as to TETRAS Performance Subscale Total Score by Video Review, Mean (SD): test concentration or dose not given here; as to TETRAS Performance Subscale Total Score by Video Review, Median: test concentration or dose not given here
Type: in vivo, human
From the text: Video-reviewed TETRAS Analyses Video reviewed TETRAS assessments were generally consistent with those conducted at the clinic. Video reviewed TETRAS performance subscale total scores are summarized for Part A, the open-label titration phase of Part B, and the randomized withdrawal phase of Part B in Table 42, Table 43, and Table 44.
Video reviewed upper limb score values were generally consistent with those conducted at the clinic and are summarized for Part A, the open-label titration phase of Part B, and the randomized withdrawal phase of Part B in Table 45, Table 46, and Table 47, respectively.

[1] = Day 21, Part B Open-Label Titration Phase (N = 17)
[2] = Day 21, Part B, Formula (I) arm (N = 6)
[3] = Day 42 6 hours Post - dose (Randomization Baseline), Part B, Formula (I) arm (N = 6)
[4] = Day 42, 6 hours Post - dose, Part B Open-Label Titration Phase (N = 17)
[5] = Day 42, 6 hours Post - dose, Part B, Formula (I) arm (N = 6)
[6] = Day 42, Pre - dose, Part B Open-Label Titration Phase (N = 17)
[7] = Day 42, Pre - dose, Part B, Formula (I) arm (N = 6)
[8] = Day 56, Part B, Formula (I) arm (N = 6)
[9] = Day 70, Part B, Formula (I) arm (N = 6)

CC(C)(C)NC(=O)CN1CCC(CNC(=O)c2cc(F)cc(Cl)c2)CC1 [compound of formula (I), N-((1-(2-(tert-butylamino)-2-oxoethyl)piperidin-4-yl)methyl)-3-chloro-5-fluorobenzamide]
TETRAS Upper Limb Score by Video Review, Mean (SD) [1]: 9.63 (2.478)
TETRAS Upper Limb Score by Video Review, Median [1]: 10.00
TETRAS Upper Limb Score by Video Review, Percentage Change from Baseline in Tremor Amplitude, Mean (SD) [1]: −9.74 (24.458) %
TETRAS Upper Limb Score by Video Review, Percentage Change from Baseline in Tremor Amplitude, Median [1]: −9.15%
TETRAS Performance Subscale Total Score by Video Review, Change from Baseline, Mean (SD) [2]: 0.08 (2.396)
TETRAS Performance Subscale Total Score by Video Review, Change from Baseline, Median [2]: 0.50
TETRAS Performance Subscale Total Score by Video Review, Mean (SD) [2]: 22.42 (3.277)
TETRAS Performance Subscale Total Score by Video Review, Median [2]: 22.00
TETRAS Performance Subscale Total Score by Video Review, Percentage Change from Baseline in Tremor Amplitude, Mean (SD) [2]: 0.67 (15.665) %
TETRAS Performance Subscale Total Score by Video Review, Percentage Change from Baseline in Tremor Amplitude, Median [2]: 3.53%
TETRAS Upper Limb Score by Video Review, Change from Baseline, Mean (SD) [2]: 0.17 (1.211)
TETRAS Upper Limb Score by Video Review, Change from Baseline, Median [2]: 0.00
TETRAS Upper Limb Score by Video Review, Mean (SD) [2]: 10.08 (0.861)
TETRAS Upper Limb Score by Video Review, Median [2]: 10.00
TETRAS Upper Limb Score by Video Review, Percentage Change from Baseline in Tremor Amplitude, Mean (SD) [2]: 2.64 (20.424) %
TETRAS Upper Limb Score by Video Review, Percentage Change from Baseline in Tremor Amplitude, Median [2]: 0.00%
TETRAS Performance Subscale Total Score by Video Review, Mean (SD) [3]: 19.92 (5.229)
TETRAS Performance Subscale Total Score by Video Review, Median [3]: 20.25
TETRAS Upper Limb Score by Video Review, Mean (SD) [3]: 8.42 (2.417)
TETRAS Upper Limb Score by Video Review, Median [3]: 9.25
TETRAS Performance Subscale Total Score by Video Review, Change from Baseline, Mean (SD) [4]: −3.18 (3.133)
TETRAS Performance Subscale Total Score by Video Review, Change from Baseline, Median [4]: −3.50
TETRAS Performance Subscale Total Score by Video Review, Mean (SD) [4]: 20.32 (7.564)
TETRAS Performance Subscale Total Score by Video Review, Median [4]: 20.00
TETRAS Performance Subscale Total Score by Video Review, Percentage Change from Baseline in Tremor Amplitude, Mean (SD) [4]: −18.90 (18.026) %
TETRAS Performance Subscale Total Score by Video Review, Percentage Change from Baseline in Tremor Amplitude, Median [4]: −22.26%
TETRAS Upper Limb Score by Video Review, Change from Baseline, Mean (SD) [4]: −1.77 (1.633)
TETRAS Upper Limb Score by Video Review, Change from Baseline, Median [4]: −1.50
TETRAS Upper Limb Score by Video Review, Mean (SD) [4]: 8.95 (2.902)
TETRAS Upper Limb Score by Video Review, Median [4]: 9.00
TETRAS Upper Limb Score by Video Review, Percentage Change from Baseline in Tremor Amplitude, Mean (SD) [4]: −26.26 (22.691) %
TETRAS Upper Limb Score by Video Review, Percentage Change from Baseline in Tremor Amplitude, Median [4]: −25.01%
TETRAS Performance Subscale Total Score by Video Review, Change from Baseline, Mean (SD) [5]: −2.42 (3.484)
TETRAS Performance Subscale Total Score by Video Review, Change from Baseline, Median [5]: −3.00
TETRAS Performance Subscale Total Score by Video Review, Percentage Change from Baseline in Tremor Amplitude, Mean (SD) [5]: −14.27 (20.962) %
TETRAS Performance Subscale Total Score by Video Review, Percentage Change from Baseline in Tremor Amplitude, Median [5]: −19.21%
TETRAS Upper Limb Score by Video Review, Change from Baseline, Mean (SD) [5]: −1.50 (2.025)
TETRAS Upper Limb Score by Video Review, Change from Baseline, Median [5]: −1.25
TETRAS Upper Limb Score by Video Review, Percentage Change from Baseline in Tremor Amplitude, Mean (SD) [5]: −21.52 (28.723) %
TETRAS Upper Limb Score by Video Review, Percentage Change from Baseline in Tremor Amplitude, Median [5]: −21.24%
TETRAS Performance Subscale Total Score by Video Review, Change from Baseline, Mean (SD) [6]: −2.32 (2.272)
TETRAS Performance Subscale Total Score by Video Review, Change from Baseline, Median [6]: −2.50
TETRAS Performance Subscale Total Score by Video Review, Mean (SD) [6]: 21.18 (7.916)
TETRAS Performance Subscale Total Score by Video Review, Median [6]: 19.50
TETRAS Performance Subscale Total Score by Video Review, Percentage Change from Baseline in Tremor Amplitude, Mean (SD) [6]: −14.41 (13.541) %
TETRAS Performance Subscale Total Score by Video Review, Percentage Change from Baseline in Tremor Amplitude, Median [6]: −16.46%
TETRAS Upper Limb Score by Video Review, Change from Baseline, Mean (SD) [6]: −1.41 (1.429)
TETRAS Upper Limb Score by Video Review, Change from Baseline, Median [6]: −1.00
TETRAS Upper Limb Score by Video Review, Mean (SD) [6]: 9.32 (2.943)
TETRAS Upper Limb Score by Video Review, Median [6]: 9.50
TETRAS Upper Limb Score by Video Review, Percentage Change from Baseline in Tremor Amplitude, Mean (SD) [6]: −21.20 (19.707) %
TETRAS Upper Limb Score by Video Review, Percentage Change from Baseline in Tremor Amplitude, Median [6]: −17.46%
TETRAS Performance Subscale Total Score by Video Review, Change from Baseline, Mean (SD) [7]: −1.33 (2.338)
TETRAS Performance Subscale Total Score by Video Review, Change from Baseline, Median [7]: −1.00
TETRAS Performance Subscale Total Score by Video Review, Mean (SD) [7]: 21.00 (5.263)
TETRAS Performance Subscale Total Score by Video Review, Median [7]: 22.25
TETRAS Performance Subscale Total Score by Video Review, Percentage Change from Baseline in Tremor Amplitude, Mean (SD) [7]: −8.23 (14.278) %
TETRAS Performance Subscale Total Score by Video Review, Percentage Change from Baseline in Tremor Amplitude, Median [7]: −6.88%
TETRAS Upper Limb Score by Video Review, Change from Baseline, Mean (SD) [7]: −0.75 (0.935)
TETRAS Upper Limb Score by Video Review, Change from Baseline, Median [7]: −0.50
TETRAS Upper Limb Score by Video Review, Mean (SD) [7]: 9.17 (1.862)
TETRAS Upper Limb Score by Video Review, Median [7]: 9.25
TETRAS Upper Limb Score by Video Review, Percentage Change from Baseline in Tremor Amplitude, Mean (SD) [7]: −12.31 (14.247) %
TETRAS Upper Limb Score by Video Review, Percentage Change from Baseline in Tremor Amplitude, Median [7]: −9.15%
TETRAS Performance Subscale Total Score by Video Review, Change from Baseline, Mean (SD) [8]: −1.33 (4.771)
TETRAS Performance Subscale Total Score by Video Review, Change from Baseline, Median [8]: −0.50
TETRAS Performance Subscale Total Score by Video Review, Change from Randomization, Mean (SD) [8]: 1.08 (2.311)
TETRAS Performance Subscale Total Score by Video Review, Change from Randomization, Median [8]: 0.75
TETRAS Performance Subscale Total Score by Video Review, Mean (SD) [8]: 21.00 (6.542)
TETRAS Performance Subscale Total Score by Video Review, Median [8]: 21.75
TETRAS Performance Subscale Total Score by Video Review, Percentage Change from Baseline in Tremor Amplitude, Mean (SD) [8]: −6.83 (27.753) %
TETRAS Performance Subscale Total Score by Video Review, Percentage Change from Baseline in Tremor Amplitude, Median [8]: −3.23%
TETRAS Performance Subscale Total Score by Video Review, Percentage Change from Randomization in Tremor Amplitude, Mean (SD) [8]: 6.68 (14.469) %
TETRAS Performance Subscale Total Score by Video Review, Percentage Change from Randomization in Tremor Amplitude, Median [8]: 5.12%
TETRAS Upper Limb Score by Video Review, Change from Baseline, Mean (SD) [8]: −0.75 (2.115)
TETRAS Upper Limb Score by Video Review, Change from Baseline, Median [8]: −0.25
TETRAS Upper Limb Score by Video Review, Change from Randomization, Mean (SD) [8]: 0.75 (0.612)
TETRAS Upper Limb Score by Video Review, Change from Randomization, Median [8]: 0.50
TETRAS Upper Limb Score by Video Review, Mean (SD) [8]: 9.17 (2.658)
TETRAS Upper Limb Score by Video Review, Median [8]: 10.00
TETRAS Upper Limb Score by Video Review, Percentage Change from Baseline in Tremor Amplitude, Mean (SD) [8]: −10.13 (31.224) %
TETRAS Upper Limb Score by Video Review, Percentage Change from Baseline in Tremor Amplitude, Median [8]: −4.57%
TETRAS Upper Limb Score by Video Review, Percentage Change from Randomization in Tremor Amplitude, Mean (SD) [8]: 12.91 (10.020) %
TETRAS Upper Limb Score by Video Review, Percentage Change from Randomization in Tremor Amplitude, Median [8]: 9.15%
TETRAS Performance Subscale Total Score by Video Review, Change from Baseline, Mean (SD) [9]: 0.60 (2.104)
TETRAS Performance Subscale Total Score by Video Review, Change from Baseline, Median [9]: 0.50
TETRAS Performance Subscale Total Score by Video Review, Change from Randomization, Mean (SD) [9]: 3.60 (3.343)
TETRAS Performance Subscale Total Score by Video Review, Change from Randomization, Median [9]: 4.50
TETRAS Performance Subscale Total Score by Video Review, Mean (SD) [9]: 22.00 (4.962)
TETRAS Performance Subscale Total Score by Video Review, Median [9]: 22.50
TETRAS Performance Subscale Total Score by Video Review, Percentage Change from Baseline in Tremor Amplitude, Mean (SD) [9]: 3.98 (13.794) %
TETRAS Performance Subscale Total Score by Video Review, Percentage Change from Baseline in Tremor Amplitude, Median [9]: 3.53%
TETRAS Performance Subscale Total Score by Video Review, Percentage Change from Randomization in Tremor Amplitude, Mean (SD) [9]: 21.30 (20.204) %
TETRAS Performance Subscale Total Score by Video Review, Percentage Change from Randomization in Tremor Amplitude, Median [9]: 27.66%
TETRAS Upper Limb Score by Video Review, Change from Baseline, Mean (SD) [9]: 0.30 (0.908)
TETRAS Upper Limb Score by Video Review, Change from Baseline, Median [9]: 0.50
TETRAS Upper Limb Score by Video Review, Change from Randomization, Mean (SD) [9]: 1.80 (2.139)
TETRAS Upper Limb Score by Video Review, Change from Randomization, Median [9]: 2.50
TETRAS Upper Limb Score by Video Review, Mean (SD) [9]: 9.80 (1.924)
TETRAS Upper Limb Score by Video Review, Median [9]: 9.50
TETRAS Upper Limb Score by Video Review, Percentage Change from Baseline in Tremor Amplitude, Mean (SD) [9]: 5.17 (15.525) %
TETRAS Upper Limb Score by Video Review, Percentage Change from Baseline in Tremor Amplitude, Median [9]: 9.15%
TETRAS Upper Limb Score by Video Review, Percentage Change from Randomization in Tremor Amplitude, Mean (SD) [9]: 25.58 (31.214) %
TETRAS Upper Limb Score by Video Review, Percentage Change from Randomization in Tremor Amplitude, Median [9]: 38.10%
